Test results as given in ChEMBL document CHEMBL1201862, “PubChem BioAssay data set” (2004).
Where “and” joins values, the source holds several entries; their conditions need not be identical. Equal values may be shown once. Calls of active or inactive are those of the source.

System: not listed separately
Experiment: Luminescence Cell-Based Dose Confirmation HTS to Identify Inhibitors of Platelet Dense Granule Release. [Related pubchem assays: 1663 (Primary HTS), 1678 (Summary of Project)]
Type: functional
Settings: not given

Compound | EC50
N#C/C(=C\c1c[nH]c2ccccc12)c1nnc2n1CCCCC2 | > 112 µM (not active)
Cc1ccc(Oc2nc3ccccn3c(=O)c2/C=C(\C#N)C(=O)NC2CCS(=O)(=O)C2)c(C)c1 (centres undefined) | 6.03 µM (active)
COC(=O)C1=C2SC(C)C(=O)N2C(N)=C(C#N)C1c1ccc(OC)c(OC)c1 (centres undefined) | > 112 µM (not active)
CCOC(=O)C(CC)n1cnc2c(nnn2-c2ccc(F)cc2)c1=O (centres undefined) | > 112 µM (not active)
CC1CCC(NC(=O)c2ccc(CS(=O)(=O)Cc3ccccc3F)o2)CC1 (centres undefined) | > 112 µM (not active)
CC12CCC(C(=O)NNc3ccccc3)(C(=O)C1=O)C2(C)C (centres undefined) | > 112 µM (not active)
CSc1nc(/C=C2\C=Nc3ccccc32)c(O)n1C | 0.812 µM (active)
Cc1ccc(C)c(NC(=O)c2cc(S(=O)(=O)N3CCOCC3)cn2C)c1 | > 112 µM (not active)
Cn1c(=O)c2c(nc(OCc3ccc(Cl)cc3Cl)n2Cc2ccc(F)cc2)n(C)c1=O | > 112 µM (not active)

Target: Cytochrome P450 2D6 (Homo sapiens, UniProt P10635);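 also: CYP2D6 member of a cytochrome P450 panel assay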
Sequence (P10635 whole entry): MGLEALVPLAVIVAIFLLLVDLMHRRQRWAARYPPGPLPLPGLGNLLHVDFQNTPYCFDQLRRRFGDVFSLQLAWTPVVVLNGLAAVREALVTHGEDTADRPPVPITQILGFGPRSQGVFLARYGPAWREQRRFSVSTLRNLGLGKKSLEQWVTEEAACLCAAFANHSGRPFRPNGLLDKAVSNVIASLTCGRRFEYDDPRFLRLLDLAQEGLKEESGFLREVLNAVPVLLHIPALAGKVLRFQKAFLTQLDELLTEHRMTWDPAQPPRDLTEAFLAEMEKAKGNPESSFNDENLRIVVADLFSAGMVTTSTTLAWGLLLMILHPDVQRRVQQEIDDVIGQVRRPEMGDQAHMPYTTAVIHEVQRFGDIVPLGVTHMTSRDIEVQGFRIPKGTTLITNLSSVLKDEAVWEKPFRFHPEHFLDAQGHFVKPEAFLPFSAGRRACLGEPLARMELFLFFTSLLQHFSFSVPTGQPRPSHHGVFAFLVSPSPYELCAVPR
Settings: not given

Compound | AC50
O=C1CC(NCCC2=CCCCC2)C(=O)N1c1cccc(Cl)c1Cl (centres undefined) | 15.8 µM (inconclusive)
N/C(CSS(=O)(=O)O)=N\[C@@H]1C[C@H]2CC[C@@H]1C2 | 7.94 µM (inconclusive)
COc1ccccc1CNc1nc(-c2cccnc2)nc2ccccc12 | 25.1 µM (inconclusive)
COc1ccc(-n2c(=O)c(-c3ccccc3)nc3cncnc32)cc1 | 25.1 µM (inconclusive)
C[C@H](CN(C)C)C(O)(c1ccccc1)c1ccccc1 | 3.98 µM (inconclusive)
CCN(CC)CCNC(=O)C(C)c1nn(C)c(=O)c2ccccc12 (centres undefined) | 20 µM (inconclusive)
CC1CCC(NC(=O)c2ccc(CS(=O)(=O)Cc3ccccc3F)o2)CC1 (centres undefined) | 35.5 µM (inconclusive)
CCN(CC)CCNC(=O)c1cc(Cl)c(N)cc1OC [METOCLOPRAMIDE] | 6.31 µM (inconclusive) and 15.8 µM (inconclusive)
Cc1cccc(NC(=O)CSc2nc(COc3ccccc3)nc3ccccc23)c1C | 12.6 µM (inconclusive)
O=C(N/N=C\c1cccc(O)c1)c1ccncc1 | 3.16 µM (inconclusive)
CC(Cc1ccccc1)C(=O)NCc1ccccn1 (centres undefined) | 39.8 µM (inconclusive)
COC(=O)C1CC1C(NC(=O)[C@H]1CCCCN1)c1ccccc1 (some centres undefined) | 20 µM (inconclusive)
CCCSC1=C(C#N)C(c2cccnc2)C(C(=O)OCC)=C(c2ccccc2)N1 (centres undefined) | 39.8 µM (inconclusive)

System: not listed separately
Experiment: Luminescence Cell-Based Dose Confirmation HTS to Identify Activators of 5'UTR Stem-Loop Driven Alpha-Synuclein mRNA Translation in H4 Neuroglioblastoma Cells. [Related pubchem assays: 1829 (Project Summary), 1814 (Primary HTS)]
Type: functional
Settings: not given

Compound | EC50
O=C(COC(=O)c1ccc2[nH]c3c(c2c1)CCCC3)Nc1ccccc1 | 5.12 µM (active)
CCN(C(=O)COC(=O)/C=C/c1cnc2ccccc2n1)c1ccccc1 | > 120 µM (not active)

Target: FAD-linked sulfhydryl oxidase ALR (Homo sapiens, UniProt P55789)
Sequence (P55789 whole entry): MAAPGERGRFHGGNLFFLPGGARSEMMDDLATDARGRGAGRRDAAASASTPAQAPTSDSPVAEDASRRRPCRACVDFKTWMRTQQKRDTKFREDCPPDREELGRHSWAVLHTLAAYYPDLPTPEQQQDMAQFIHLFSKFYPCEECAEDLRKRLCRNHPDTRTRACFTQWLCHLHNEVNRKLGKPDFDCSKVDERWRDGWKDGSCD
Experiment: inhibitors of human ALR sulfhydryl oxidase, dose response, biochemical, H2O2 detection, luminescence, cherry-pick (AID 493248)
Settings: not given

Compound | AC50
CSc1nc(/C=C2\C=Nc3ccccc32)c(O)n1C | 4.03 µM (active)

Target: Luciferin 4-monooxygenase (Photinus pyralis, UniProt P08659)
Sequence (P08659 whole entry): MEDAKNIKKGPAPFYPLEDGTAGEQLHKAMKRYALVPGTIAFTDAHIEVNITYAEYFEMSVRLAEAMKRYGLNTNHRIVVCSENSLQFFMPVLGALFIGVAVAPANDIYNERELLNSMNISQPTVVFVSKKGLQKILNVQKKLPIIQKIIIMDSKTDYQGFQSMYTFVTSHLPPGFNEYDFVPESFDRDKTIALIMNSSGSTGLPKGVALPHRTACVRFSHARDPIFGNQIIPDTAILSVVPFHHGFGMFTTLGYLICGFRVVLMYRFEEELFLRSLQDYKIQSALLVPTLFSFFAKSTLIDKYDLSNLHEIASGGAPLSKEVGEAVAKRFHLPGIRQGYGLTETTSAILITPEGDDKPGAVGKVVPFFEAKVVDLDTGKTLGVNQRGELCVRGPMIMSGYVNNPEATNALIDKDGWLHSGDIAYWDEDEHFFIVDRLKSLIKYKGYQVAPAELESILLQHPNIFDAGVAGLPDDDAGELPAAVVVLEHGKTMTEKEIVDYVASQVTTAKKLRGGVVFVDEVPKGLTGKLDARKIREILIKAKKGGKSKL
Experiment: firefly luciferase enzyme inhibitors, dose response, biochemical, luminescence (AID 1891)
Settings: not given

Compound | EC50
N#C/C(=C\c1c[nH]c2ccccc12)c1nnc2n1CCCCC2 | > 112 µM (not active)
Cc1ccc(Oc2nc3ccccn3c(=O)c2/C=C(\C#N)C(=O)NC2CCS(=O)(=O)C2)c(C)c1 (centres undefined) | > 112 µM (not active)
COC(=O)C1=C2SC(C)C(=O)N2C(N)=C(C#N)C1c1ccc(OC)c(OC)c1 (centres undefined) | > 112 µM (not active)
CCOC(=O)C(CC)n1cnc2c(nnn2-c2ccc(F)cc2)c1=O (centres undefined) | > 112 µM (not active)
CC1CCC(NC(=O)c2ccc(CS(=O)(=O)Cc3ccccc3F)o2)CC1 (centres undefined) | > 112 µM (not active)
CC12CCC(C(=O)NNc3ccccc3)(C(=O)C1=O)C2(C)C (centres undefined) | > 112 µM (not active)
CSc1nc(/C=C2\C=Nc3ccccc32)c(O)n1C | 5.32 µM (active)
Cc1ccc(C)c(NC(=O)c2cc(S(=O)(=O)N3CCOCC3)cn2C)c1 | > 112 µM (not active)
Cn1c(=O)c2c(nc(OCc3ccc(Cl)cc3Cl)n2Cc2ccc(F)cc2)n(C)c1=O | > 112 µM (not active)

Target: T1, Cytochrome P450 1A2 (Homo sapiens, UniProt P05177);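 also: PubChem cytochrome P450 panel assay, CYP1A2 panel member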
T1 sequence (P05177 whole entry): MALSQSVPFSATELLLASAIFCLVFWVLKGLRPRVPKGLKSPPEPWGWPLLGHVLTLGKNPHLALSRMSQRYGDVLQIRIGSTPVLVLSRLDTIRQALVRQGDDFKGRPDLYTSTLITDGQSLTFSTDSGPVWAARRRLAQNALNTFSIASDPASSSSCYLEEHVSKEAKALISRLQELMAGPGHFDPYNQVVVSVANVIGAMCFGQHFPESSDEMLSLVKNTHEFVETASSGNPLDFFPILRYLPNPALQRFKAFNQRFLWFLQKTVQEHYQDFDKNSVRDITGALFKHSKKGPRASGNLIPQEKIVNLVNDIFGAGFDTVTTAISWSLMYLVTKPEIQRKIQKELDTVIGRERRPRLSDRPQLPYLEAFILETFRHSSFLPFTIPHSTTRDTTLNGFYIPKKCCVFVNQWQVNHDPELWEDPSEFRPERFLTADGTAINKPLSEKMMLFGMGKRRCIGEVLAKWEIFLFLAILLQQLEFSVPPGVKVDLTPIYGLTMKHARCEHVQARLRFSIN
Settings: not given

Compound | AC50
O=C1CC(NCCC2=CCCCC2)C(=O)N1c1cccc(Cl)c1Cl (centres undefined) | 15.8 µM (inconclusive)
N/C(CSS(=O)(=O)O)=N\[C@@H]1C[C@H]2CC[C@@H]1C2 | 10 µM (inconclusive)
CC1CCC(NC(=O)c2ccc(CS(=O)(=O)Cc3ccccc3F)o2)CC1 (centres undefined) | 0.251 µM (inconclusive)
CCN(CC)CCNC(=O)c1cc(Cl)c(N)cc1OC [METOCLOPRAMIDE] | 15.8 µM (inconclusive)
Cc1cccc(NC(=O)CSc2nc(COc3ccccc3)nc3ccccc23)c1C | 12.6 µM (inconclusive)

Target: Cytochrome P450 2C9 (Homo sapiens, UniProt P11712)
Sequence (P11712 whole entry): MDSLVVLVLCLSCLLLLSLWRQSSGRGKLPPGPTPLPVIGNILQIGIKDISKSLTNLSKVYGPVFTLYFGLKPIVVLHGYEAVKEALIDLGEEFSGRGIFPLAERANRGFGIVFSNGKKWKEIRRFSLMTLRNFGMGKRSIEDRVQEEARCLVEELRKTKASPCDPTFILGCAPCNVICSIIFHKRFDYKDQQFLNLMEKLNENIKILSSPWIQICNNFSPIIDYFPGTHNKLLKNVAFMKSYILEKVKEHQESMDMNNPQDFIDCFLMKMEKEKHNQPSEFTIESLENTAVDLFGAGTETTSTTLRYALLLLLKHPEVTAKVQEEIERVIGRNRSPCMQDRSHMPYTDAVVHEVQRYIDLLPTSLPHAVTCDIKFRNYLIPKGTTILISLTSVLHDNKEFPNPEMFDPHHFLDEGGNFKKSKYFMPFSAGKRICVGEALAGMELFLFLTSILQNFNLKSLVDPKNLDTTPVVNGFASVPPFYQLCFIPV
Settings: not given

Compound | AC50
N/C(CSS(=O)(=O)O)=N\[C@@H]1C[C@H]2CC[C@@H]1C2 | 7.94 µM (inconclusive)
CC1CCC(NC(=O)c2ccc(CS(=O)(=O)Cc3ccccc3F)o2)CC1 (centres undefined) | 17.8 µM (inconclusive)
COC(=O)C1CC1C(NC(=O)[C@H]1CCCCN1)c1ccccc1 (some centres undefined) | 20 µM (inconclusive)

Target: Cytochrome P450 3A4 (Homo sapiens, UniProt P08684);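 also: CYP3A4 tested as one member of a cytochrome P450 panel screen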
Sequence (P08684 whole entry): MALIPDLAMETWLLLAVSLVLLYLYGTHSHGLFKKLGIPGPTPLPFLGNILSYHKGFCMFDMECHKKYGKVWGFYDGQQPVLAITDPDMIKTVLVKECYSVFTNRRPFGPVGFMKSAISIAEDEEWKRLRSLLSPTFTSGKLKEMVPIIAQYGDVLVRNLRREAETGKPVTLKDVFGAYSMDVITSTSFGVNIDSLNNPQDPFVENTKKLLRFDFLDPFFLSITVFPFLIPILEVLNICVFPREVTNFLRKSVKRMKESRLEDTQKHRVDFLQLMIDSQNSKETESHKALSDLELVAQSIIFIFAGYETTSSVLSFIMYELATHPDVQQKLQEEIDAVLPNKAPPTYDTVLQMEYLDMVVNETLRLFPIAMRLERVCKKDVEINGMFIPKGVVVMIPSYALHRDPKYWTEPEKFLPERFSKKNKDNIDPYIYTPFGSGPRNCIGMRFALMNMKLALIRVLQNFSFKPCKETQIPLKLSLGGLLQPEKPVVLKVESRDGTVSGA
Settings: not given

Compound | AC50
O=C1CC(NCCC2=CCCCC2)C(=O)N1c1cccc(Cl)c1Cl (centres undefined) | 15.8 µM (inconclusive)
COc1ccccc1CNc1nc(-c2cccnc2)nc2ccccc12 | 1.26 µM (inconclusive)
COc1ccc(-n2c(=O)c(-c3ccccc3)nc3cncnc32)cc1 | 15.8 µM (inconclusive)
CC1CCC(NC(=O)c2ccc(CS(=O)(=O)Cc3ccccc3F)o2)CC1 (centres undefined) | 14.1 µM (inconclusive)

System: H4
Experiment: Luminescence Cell-Based Dose Response HTS to Identify Activators of 5'UTR Stem-Loop Driven Prion Protein mRNA Translation in H4 Neuroglioblastoma Cells. [Related pubchem assays: 1829 (Project Summary), 1814 (Primary HTS)]
Type: functional
Settings: Homo sapiens

Compound | EC50
O=C(COC(=O)c1ccc2[nH]c3c(c2c1)CCCC3)Nc1ccccc1 | > 120 µM (not active)
CCN(C(=O)COC(=O)/C=C/c1cnc2ccccc2n1)c1ccccc1 | > 120 µM (not active)

Target: T2, Rac GTPase-activating protein 1 (Homo sapiens, UniProt Q9H0H5)
T2 sequence (Q9H0H5 whole entry): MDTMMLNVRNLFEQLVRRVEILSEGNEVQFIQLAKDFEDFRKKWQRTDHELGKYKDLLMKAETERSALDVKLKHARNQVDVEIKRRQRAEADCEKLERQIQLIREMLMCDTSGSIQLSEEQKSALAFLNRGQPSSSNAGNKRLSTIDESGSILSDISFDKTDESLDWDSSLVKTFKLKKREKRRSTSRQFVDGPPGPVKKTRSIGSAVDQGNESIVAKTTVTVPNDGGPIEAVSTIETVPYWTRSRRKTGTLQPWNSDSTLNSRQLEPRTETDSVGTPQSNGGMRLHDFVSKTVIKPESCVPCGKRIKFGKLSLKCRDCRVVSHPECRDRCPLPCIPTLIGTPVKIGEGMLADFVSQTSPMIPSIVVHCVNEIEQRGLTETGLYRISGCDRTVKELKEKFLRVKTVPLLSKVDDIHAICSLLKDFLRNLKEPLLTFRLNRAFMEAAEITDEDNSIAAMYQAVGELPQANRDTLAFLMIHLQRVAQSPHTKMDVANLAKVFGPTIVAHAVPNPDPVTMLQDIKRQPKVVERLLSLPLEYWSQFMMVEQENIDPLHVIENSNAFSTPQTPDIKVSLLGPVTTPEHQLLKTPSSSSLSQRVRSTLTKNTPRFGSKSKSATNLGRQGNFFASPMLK
Experiment: MgcRacGAP GTPase-activating activity inhibitors, confirmation, biochemical, ADP Hunter fluorescence, primary and confirmatory (AID 624330)
Type: functional
Settings: not given

Compound | IC50
CSc1nc(/C=C2\C=Nc3ccccc32)c(O)n1C | 41 µM (active)

Target: Cytochrome P450 2C19 (Homo sapiens, UniProt P33261)
Sequence (P33261 whole entry): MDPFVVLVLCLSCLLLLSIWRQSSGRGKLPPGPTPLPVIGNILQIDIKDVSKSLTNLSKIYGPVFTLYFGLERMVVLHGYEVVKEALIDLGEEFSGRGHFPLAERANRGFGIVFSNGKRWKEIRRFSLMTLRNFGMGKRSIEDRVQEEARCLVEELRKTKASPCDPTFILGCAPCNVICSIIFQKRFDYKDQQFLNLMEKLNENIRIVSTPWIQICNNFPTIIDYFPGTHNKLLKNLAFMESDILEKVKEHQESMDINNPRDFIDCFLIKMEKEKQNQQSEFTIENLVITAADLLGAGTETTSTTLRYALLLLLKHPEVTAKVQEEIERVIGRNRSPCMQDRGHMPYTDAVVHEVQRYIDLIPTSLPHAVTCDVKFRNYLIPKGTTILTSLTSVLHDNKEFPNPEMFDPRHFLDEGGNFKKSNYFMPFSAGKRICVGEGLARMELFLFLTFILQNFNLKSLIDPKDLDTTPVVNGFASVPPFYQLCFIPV
Experiment: Cytochrome panel assay with activity outcomes. Panel member name: p450-cyp2c19 Compounds with AC50 equal or less than 10 uM are considered active
Type: functional
Settings: not given

Compound | AC50
N/C(CSS(=O)(=O)O)=N\[C@@H]1C[C@H]2CC[C@@H]1C2 | inconclusive
C[C@H](CN(C)C)C(O)(c1ccccc1)c1ccccc1 | inconclusive

Same assay, conditions: read-out: AC50

Compound | AC50
COc1ccc(-n2c(=O)c(-c3ccccc3)nc3cncnc32)cc1 | 39.8 µM (inconclusive)

System: not listed separately
Experiment: Luminescence Cell-Based Dose Response HTS to Identify Activators of Luciferase Translation or Activity in H4 […] Cells. [Related pubchem assays: 1829 (Project Summary), 1814 (Primary HTS)]
Type: functional
Settings: not given

Compound | EC50
O=C(COC(=O)c1ccc2[nH]c3c(c2c1)CCCC3)Nc1ccccc1 | 41.9 µM (active)
CCN(C(=O)COC(=O)/C=C/c1cnc2ccccc2n1)c1ccccc1 | 0.49 µM (active)
